From US20120207733A1 (priority 2011, published 2012)

System: DU-145 cells
Format: cell-based, Human

Structure (SMILES): C=C1[C@@H](C)[C@H]2[C@H](Cc3ccccc3)NC(=O)[C@]23[C@H](OC(C)=O)/C=C/[C@@](C)(O)C(=O)[C@@H](C)C/C=C/[C@H]3[C@@H]1O [Cytochalasin-D]
- Effect on cell migration: did not migrate
- Relative Wound Density at 24 Hours, Mean: 3.3 ± 0.2
- Relative Wound Density at 24 Hours, Percent Relative to Media: 4%
